# According to PMC317294 (BMC Pharmacology, 2003):
# Key:
# [1] = biological target: T1, human mu opioid receptor (hMOR) (Homo sapiens, UniProt P35372); assay type: cell-based
# [2] = biological target: T2, Ala^348,353 hMOR (Homo sapiens, UniProt P35372, C348A/C353A); assay type: cell-based
# [3] = biological target: T2, Ala^348,353 hMOR; assay: biochemical; details: read-out: maximal efficacy as percentage of stimulation above basal levels
# [4] = biological target: T1, human mu opioid receptor (hMOR); assay: biochemical; details: read-out: maximal efficacy as percentage of stimulation above basal levels
# [5] = biological target: T2, Ala^348,353 hMOR; assay type: binding
# T2 sequence (P35372 whole entry C348A/C353A): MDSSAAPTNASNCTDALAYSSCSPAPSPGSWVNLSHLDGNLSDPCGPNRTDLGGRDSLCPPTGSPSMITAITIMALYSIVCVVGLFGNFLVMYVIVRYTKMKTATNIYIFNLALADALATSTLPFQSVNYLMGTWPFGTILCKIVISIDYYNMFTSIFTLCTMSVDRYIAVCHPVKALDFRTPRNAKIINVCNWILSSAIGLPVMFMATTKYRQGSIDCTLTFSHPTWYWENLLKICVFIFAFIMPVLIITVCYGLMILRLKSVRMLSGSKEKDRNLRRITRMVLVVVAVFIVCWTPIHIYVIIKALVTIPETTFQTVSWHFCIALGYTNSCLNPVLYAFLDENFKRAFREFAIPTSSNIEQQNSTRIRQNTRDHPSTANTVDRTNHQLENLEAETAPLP
# T1 sequence (P35372 whole entry): as the sequence (P35372 whole entry C348A/C353A) above, with A348C, A353C counted along it
smiles,measurement,setting,value
COc1cccc2c1[C@]13CCN(CC4CC4)[C@H](C2)[C@]1(OC)CCC(=O)C3 [Cyprodime],hMOR expression level after ligand treatment,[1],103 ± 9%
same,"Ala^348,353 hMOR expression level after ligand treatment",[2],245 ± 20%
"C[C@@H](NC(=O)[C@@H](N)Cc1ccc(O)cc1)C(=O)NCC(=O)N(C)[C@@H](Cc1ccccc1)C(=O)NCCO [DAMGO, [D-Ala^2, N-Me-Phe^4, Gly^5-ol]-enkephalin]",Emax,[3],164 ± 6%
same,Emax,[4],366 ± 23%
C[C@@H](NC(=O)[C@@H](N)Cc1ccc(O)cc1)C(=O)N[C@@H](Cc1ccccc1)C(=O)NCC(=O)N[C@@H](Cc1ccc(O)cc1)C(=O)N1CCC[C@H]1C(=O)N[C@@H](CO)C(N)=O [Dermorphin],"increase in binding affinity for Ala^348,353 hMOR compared to hMOR",[5],approximately 20 fold
